Test results published in US12533389B2, “Glycopeptide antibiotic combination therapy” (The Trustees of Princeton University, priority 2021, dated 2026).
In brackets after ≈: the same amount, converted by molar mass. Read-outs that look alike come from different tables or passages of the source.

Tests used:
[1] = test system: Nα,Nε-diacetyl-L-Lys-D-Ala-D-Ala tripeptide; assay: Isothermal titration calorimetry (ITC) equilibrium binding of GPAs to the tripeptide ligand; settings: for ΔG: Experiment (ITC)
[2] = test system: diverse Gram-positive bacteria; settings: cited from earlier work
C. difficile infection = settings: compared to metronidazole and vancomycin; cited from earlier work
[3] = test system: Clostridium difficile, Strain P8; assay: Antimicrobial susceptibility profile of selected gut bacteria; type: cell-based; settings: drug alone
C. difficile P8 [4] = assay: Checkerboard agar dilution of vancomycin in combination with keratinicyclin B; type: cell-based, Clostridium difficile
Protocol: Minimal inhibitory concentrations (MICs) were determined by the agar dilution method following the guidelines of the Clinical and Laboratory Standards Institute (CLSI). […] The effect of vancomycin in combination with keratinicyclin B against C. difficile P8 was assessed by the checkerboard agar dilution method. […] The antibiotic agar plates were prereduced in an anaerobic container prior to inoculation. […] To avoid the selection of an atypical variant, five colonies were suspended in prereduced Gifu anaerobic broth and grown to a density equivalent to a 0.5 McFarland standard (1-2×10^8 cfu/mL). Once the appropriate cell density was reached, the prereduced antibiotic agar plates were inoculated (10^5 cfu/spot). After incubating anaerobically at 37° C. for 48 h, the plates were inspected for bacterial growth. The MIC was defined as the lowest concentration of antibiotic leading to no growth, one colony, or a fine haze. […] The combination effect was defined as synergistic when ΣFIC≤0.5, additive when 0.5<ΣFIC≤1, indifferent when 1<ΣFIC≤2, and antagonistic when ΣFIC>2.

[5] = test system: Ruminococcus lactaris, Strain CC59_002D, HM-1057; assay: Antimicrobial susceptibility profile of selected gut bacteria; type: cell-based; settings: drug alone
[6] = test system: Clostridium perfringens, Strain WAL-14572; type: cell-based; settings: drug alone
selected gut bacteria = assay: Antimicrobial susceptibility profile of selected gut bacteria; type: cell-based
C. difficile = settings: cited from earlier work
C. difficile P8 [7] = assay: MIC by agar dilution method (CLSI); type: cell-based, Clostridium difficile
Protocol: Minimal inhibitory concentrations (MICs) were determined by the agar dilution method following the guidelines of the Clinical and Laboratory Standards Institute (CLSI). […] The effect of vancomycin in combination with keratinicyclin B against C. difficile P8 was assessed by the checkerboard agar dilution method. […] The antibiotic agar plates were prereduced in an anaerobic container prior to inoculation. […] To avoid the selection of an atypical variant, five colonies were suspended in prereduced Gifu anaerobic broth and grown to a density equivalent to a 0.5 McFarland standard (1-2×10^8 cfu/mL). […] After incubating anaerobically at 37° C. for 48 h, the plates were inspected for bacterial growth. The MIC was defined as the lowest concentration of antibiotic leading to no growth, one colony, or a fine haze.

tripeptide ligand = settings: cited from earlier work
[8] = ITC, 25° C., 0.1 M sodium phosphate buffer, pH 7

**Q.** Which ΔG [1] does the source give for keratinimicin A here?
**A.** -7.9 kcal/mol

**Q.** And the TΔS ([1]; ITC, 25° C., pH 7)?
**A.** 0.85 kcal/mol

**Q.** And the Kd ([1]; ITC, 25° C., pH 7, unit inferred)?
**A.** 1.7 ± 0.3 µM

**Q.** What about the spectrum of activity [2] of the same compound?
**A.** broad-spectrum activity against diverse Gram-positive bacteria

**Q.** Which recurrence rates (C. difficile infection) does the source give for CCc1c(Cl)c(O)c(Cl)c(O)c1C(=O)O[C@H]1[C@H](O)[C@H](OC)[C@H](OC/C2=C\C=C\C[C@H](O)/C(C)=C/[C@H](CC)[C@@H](O[C@@H]3OC(C)(C)[C@@H](OC(=O)C(C)C)[C@H](O)[C@@H]3O)/C(C)=C/C(C)=C/C[C@@H]([C@@H](C)O)OC2=O)O[C@@H]1C [fidaxomicin] here?
**A.** halves recurrence rates

**Q.** With CO[C@H]1[C@H](C)O[C@@H](O[C@@H]2c3ccc(c(Cl)c3)Oc3cc4cc(c3O[C@@H]3O[C@H](CO)[C@@H](O)[C@H](O)[C@H]3O[C@H]3C[C@H](N)[C@@H](O)[C@H](C)O3)Oc3ccc(cc3)[C@H]3OC(=O)N[C@H]3C(=O)N[C@@H](Cc3ccccc3)C(=O)N[C@H]4C(=O)N[C@H]3C(=O)N[C@@H]2C(=O)N[C@H](C(=O)O)c2cc(O)cc(O[C@H]4O[C@H](CO)[C@@H](O)[C@H](O)[C@@H]4O)c2-c2cc3ccc2O)C[C@@H]1N [keratinicyclin B] as the compound, how does the growth inhibition [3] read?
**A.** inhibiting the growth

**Q.** And the Checkerboard analysis result (C. difficile P8 [4]; keratinicyclin B 4 μg/mL + vancomycin 0 μg/mL)?
**A.** I (I = indifference)

**Q.** And the Checkerboard analysis result (C. difficile P8 [4]; keratinicyclin B 8 μg/mL + vancomycin 0 μg/mL)?
**A.** I (I = indifference)

**Q.** And the growth inhibition [5]?
**A.** inhibiting the growth

**Q.** And the growth inhibition [6]?
**A.** inhibiting the growth

**Q.** What about the “spectrum of antibacterial activity” value (selected gut bacteria; each drug alone, FIG. 5) of the same compound?
**A.** narrower spectrum of antibiotic activity

**Q.** What about the “binding of the tripeptide” value ([1]; ITC, several concentrations tested) of the same compound?
**A.** did not bind the tripeptide

**Q.** What about the Kd ([1]; ITC, estimated based on the sensitivity of the setup) of the same compound?
**A.** > 500 µM

**Q.** What about the “minimal inhibitory concentration (MIC)” value (C. difficile; previous bioactivity data) of the same compound?
**A.** 9.8 µM (≈ 16.1 µg/mL)

**Q.** What about the spectrum of activity (C. difficile; previously shown) of the same compound?
**A.** narrow-spectrum activity against C. difficile

**Q.** And the MIC (C. difficile P8 [7]; alone, anaerobic, 37° C., 48 h)?
**A.** 4 µg/mL

**Q.** Which Kd [1, 8] does the source give for keratinimicin C here?
**A.** 2.8 ± 0.3 µM

**Q.** What about the TΔS ([1]; ITC, 25° C., pH 7) of the same compound?
**A.** 0.2 kcal/mol

**Q.** What about the ΔH ([1]; ITC, 25° C., pH 7) of the same compound?
**A.** -7.4 ± 0.3 kcal/mol

**Q.** For C[C@@H]1O[C@@H](O[C@H]2[C@H](Oc3c4cc5cc3Oc3ccc(cc3Cl)[C@@H](O)[C@@H](N)C(=O)N[C@@H](CC(N)=O)C(=O)N[C@H]5C(=O)N[C@H]3C(=O)N[C@H](C(=O)N[C@H](C(=O)O)c5cc(O)cc(O)c5-c5cc3ccc5O)[C@H](O)c3ccc(c(Cl)c3)O4)O[C@H](CO)[C@@H](O)[C@@H]2O)C[C@](C)(N)[C@@H]1O [desleucyl-1], which Kd (tripeptide ligand; Experiment section of Table 2, reported value) is on record?
**A.** ~20000 µM

**Q.** And the “binding of the tripeptide ligand” value (tripeptide ligand; N-terminal N-Me-D-Leu removed by Edman degradation)?
**A.** does not bind the tripeptide ligand

**Q.** What about the Kd (tripeptide ligand; reported experimental value) of the same compound?
**A.** ~20000 µM

**Q.** For CN[C@H](CC(C)C)C(=O)N[C@H]1C(=O)N[C@@H](CC(N)=O)C(=O)N[C@H]2C(=O)N[C@H]3C(=O)N[C@H](C(=O)N[C@H](C(=O)O)c4cc(O)cc(O)c4-c4cc3ccc4O)[C@H](O)c3ccc(c(Cl)c3)Oc3cc2cc(c3O[C@@H]2O[C@H](CO)[C@@H](O)[C@H](O)[C@H]2O[C@H]2C[C@](C)(N)[C@H](O)[C@H](C)O2)Oc2ccc(cc2Cl)[C@H]1O [vancomycin], which “spectrum of antibacterial activity” value (selected gut bacteria) is on record?
**A.** broad-spectrum antibacterial activity against all tested Gram-positive bacteria

**Q.** And the ΔG [1]?
**A.** -7.6 kcal/mol

**Q.** What about the Kd [1, 8] of the same compound?
**A.** 2.7 ± 0.4 µM

**Q.** And the TΔS ([1]; ITC, 25° C., pH 7)?
**A.** -0.96 kcal/mol

**Q.** What about the ΔH ([1]; ITC, 25° C., pH 7) of the same compound?
**A.** -8.6 ± 0.5 kcal/mol

**Q.** What about the MIC (C. difficile P8 [7]; Clostridioides difficile, P8, 48 h) of the same compound?
**A.** 1 µg/mL
